This test concerns the target T1, Bacillus subtilis lipase A (BSLA WT) (Bacillus subtilis, UniProt P37957).
T1 construct: gene estA
The test is described as follows: fluorogenic hydrolysis assay. The conditions noted are these: 500 nM enzyme, 20 °C; W42C purified by cation exchange. The format is biochemical.

Regarding `CCCC(=O)Oc1ccc2c(C)cc(=O)oc2c1` [4-methylumbelliferyl butyrate], the fluorogenic hydrolysis assay result was “The kinetic effect of PMMA on BSLA WT and W42C was found to be identical”.

(Values after PMC12316734, “Lipase Activation by Poly(Methyl Methacrylate) in Dispersed Solution: Mechanistic Insights by Fluorescence Spectroscopy” (Applied Biochemistry and Biotechnology, 2025).)
